Article PMC12598832, “Synthesis and Anticancer Potential of New Benzimidazole Theranostic” (ChemistryOpen, 2025)
Where “and” joins values, the source holds several entries; their conditions need not be identical. Equal values may be shown once. Where a name gives a salt, the structure may show the parent alone. Read-outs that look alike come from different tables or passages of the source.

Tests used:
[1] = tested on: H103 (oral squamous cell carcinoma, OSCC) cell line; experiment: MTT cell proliferation assay, H103; assay type: cell-based; conditions: for H103 Selectivity Index (SI): versus HEK293; for IC50: MTT, 72 h, read-out: H103 IC50 [μM] ± SEM
Excerpt: (§1) The H103 and H314 OSCC cell lines were obtained from the European Collection of Cell Cultures (ECACC). The HCT116 and HEK293 cell lines were obtained from the American Type Culture Collection (Rockville, MD).
(§2) All cell lines were maintained in high‐glucose Dulbecco's Modified Eagle Media (DMEM) (Sigma‐Aldrich, Buchs, Switzerland). The culture media was supplemented with 10% fetal bovine serum (FBS) (TICO, Amsterdam, Netherlands) and 1% penicillin‐streptomycin. Prior to the cell‐based assay, cell lines were incubated at 37 °C in a 5% CO2 humidified atmosphere
(§3) Cells were seeded in 96‐well plates at a density of 5 × 10^3 per well. After 24 h of seeding, the cells were treated with 50 μM of the compounds of interest (final concentration 0.25% DMSO) and allowed to adhere for 72 h at 37 °C in a 5% CO2 humidified atmosphere. The 3‐(4,5‐dimethylthiazol‐2‐yl)‐2,5‐diphenyltetrazolium bromide (MTT) assay was conducted to examine the cell cytotoxicity profiles of the synthesized compounds. Briefly, the treatment media was discarded, and 0.5 mg mL^−1 of MTT was added to each well. The plates were incubated for another 4 h at 37 °C in a 5% CO2 humidified atmosphere. Following the incubation, the medium‐MTT solution was removed, and 100 μL of DMSO was added to dissolve the formazan crystals. The absorbance was measured at 570 nm, with the reference wavelength at 620 nm, using the Tecan Infinite 200 Pro. The experiment was carried out in triplicate.

H314 (OSCC) cell line = experiment: MTT cell proliferation assay, H314; assay type: cell-based; conditions: for IC50: MTT, read-out: H314 IC50 [μM] ± SEM; for IC50 / cytotoxic effect in preliminary screening, H314: 72 h; for H314 Selectivity Index (SI): versus HEK293; for cytotoxic effect in preliminary screening, H314: 50 μM, versus control 0.25% DMSO, ANOVA/Tukey
Excerpt: as §1, §2
as §3, with “After 24 h of seeding, the cells were treated with 50 μM of the compounds of interest (final concentration 0.25% DMSO) and allowed to adhere for 72 h at 37 °C in a 5% CO2 humidified atmosphere.” left out

[2] = tested on: HCT116 (colorectal carcinoma) cell line; experiment: MTT cell proliferation assay, HCT116; assay type: cell-based; conditions: for IC50: MTT, 72 h, read-out: HCT116 IC50 [μM] ± SEM; for HCT116 Selectivity Index (SI): versus HEK293
HEK293 cells = experiment: MTT cell proliferation assay, HEK293 (noncancerous); assay type: cell-based, human; conditions: read-out: HEK293 IC50 [μM] ± SEM
Excerpt: as §1, §2, §3

[3] = tested on: H103 (oral squamous cell carcinoma, OSCC) cell line; design: method as in PMID 32904142; conditions: previous study; cited from earlier work
H103 cell line = tested on: H103 cell line; design: method as in ref 28 Khoo et al.; conditions: 24 h treatment; ref 28 Khoo et al.; cited from earlier work
H314 cell line = tested on: H314 cell line; design: method as in ref 28 Khoo et al.; conditions: 24 h treatment; ref 28 Khoo et al.; cited from earlier work
SIRT2 human recombinant = biological target: T1, SIRT2 human recombinant (Homo sapiens, UniProt Q8IXJ6); experiment: SIRT2 Direct Fluorescent Screening Assay Kit (Cayman); assay type: biochemical; conditions: for IC50: five concentrations 1-50 μM
T1 construct: purchased Cayman Chemicals, Ann Arbor 700,280
T1 sequence (Q8IXJ6 1-389): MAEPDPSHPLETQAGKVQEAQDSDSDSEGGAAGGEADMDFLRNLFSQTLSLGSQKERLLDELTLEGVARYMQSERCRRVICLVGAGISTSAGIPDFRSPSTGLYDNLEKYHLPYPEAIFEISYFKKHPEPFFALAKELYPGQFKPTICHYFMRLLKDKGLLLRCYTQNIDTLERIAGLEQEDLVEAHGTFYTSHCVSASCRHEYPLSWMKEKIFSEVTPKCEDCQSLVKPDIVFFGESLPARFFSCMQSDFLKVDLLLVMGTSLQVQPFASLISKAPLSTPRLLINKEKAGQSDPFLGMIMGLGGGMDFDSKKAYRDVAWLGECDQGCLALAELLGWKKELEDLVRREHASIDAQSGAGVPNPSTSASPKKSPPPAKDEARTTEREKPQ
Experimental: The SIRT2 inhibitory activity of the compounds was evaluated using the SIRT2 Direct Fluorescent Screening Assay Kit (Cayman Chemicals, Ann Arbor, C/N: 700,280) according to the manufacturer's instructions. The SIRT2 peptide substrate comprised amino acids 317–320 of human p53 conjugated to […] (Gln‐Pro‐Lys‐Lys(ε‐acetyl)‐AMC). […] Subsequently, 50 μl of developer solution (6 μg μl^−1 SIRT2 developer, 2 mM nicotinamide) was added. The mixture was incubated for a further 30 min at room temperature. […] The fluorescence was measured with excitation and emission wavelengths of 355 and 460 nm, respectively, using the Tecan Infinite 200 Pro. The percentage inhibition was determined as the ratio of […] under each experimental condition to that of the control.

[4] = Fluorescence properties (molar extinction coefficient, quantum yield, Stokes shift); assay type: physicochemical
Experimental: A series of dilutions of V7 (dissolved in DMSO) was prepared. The absorbance of the solutions at 326 nm was recorded on the UviLine 9400 spectrophotometer using a quartz cuvette (10 × 10 mm). A calibration curve of absorbance against concentration was generated. The molar extinction coefficient was calculated from the gradient of the line of best fit, in accordance with Beer–Lambert's law.
A series of dilutions of V7 (dissolved in DMSO) was prepared. The fluorescence emission peak at each concentration was determined using the Tecan Infinite 200 Pro microplate reader (λex = 326 nm and λem = 492 nm). The […] peak was plotted against the fluorescence emission peak and compared to that of a quinine sulfate standard, which has a known quantum yield.
The quantum yield of V7 was subsequently calculated using the following equation Φ=ΦR(Grad/GradR)(n^2/nr2)
The quinine sulfate reference has a quantum yield of 54.6% when dissolved in 0.5 M H2SO4.^[ [26] ^] The refractive index of 0.5 M H2SO4 is 1.346, while the refractive index of DMSO is 1.479.^[ [27] ^]

[5] = design: method as in ref 26 = [26]; 26 W. H. Melhuish , J. Phys. Chem. 1961 , 65 , 229 .; conditions: in 0.5 M H2SO4; cited from earlier work
[6] = compound 50 μM, preliminary screening, read-out: Percentage SIRT2 inhibition (%)
[7] = compound 50 μM, preliminary screening
[8] = dose-response, 50 μM, read-out: % Inhibition of SIRT2

IC50 (H314 (OSCC) cell line)	IC50 ([2]; Homo sapiens, HCT-116)	inhibition at 50 µM (SIRT2 human recombinant; [6])	Percentage SIRT2 inhibition (%) (SIRT2 human recombinant; [7])	Structure (SMILES)	H103 Selectivity Index (SI) [1]	HCT116 Selectivity Index (SI) [2]	IC50 (HEK293 cells; Homo sapiens, HEK293, 72 h)	H314 Selectivity Index (SI) (H314 (OSCC) cell line)	further results
> 100 µM	11.5 ± 2.3 µM	–	–	CCOC(=O)c1ccc2[nH]c(-c3ccc4c(c3)OCO4)nc2c1 [BZD9Q1, reference compound]	3.15	1.60	18.4 ± 2.95 µM	–	IC50 [3]: 5.83 µM
–	–	25.4 ± 11.8%	–	CCOC(=O)c1ccc2[nH]c(-c3cccc(O)c3)nc2c1 [Compound V1]	–	–	–	–	–
–	–	61.9 ± 12%	–	CCOC(=O)c1ccc2[nH]c(-c3ccc(O)c(OC)c3)nc2c1 [Compound V3]	–	–	–	–	–
–	–	–	no SIRT2 inhibition	CCOC(=O)c1ccc2[nH]c(-c3ccc(OC)c(O)c3)nc2c1 [Compound V4]	–	–	–	–	–
31.7 ± 1.27 µM	11.2 ± 3.14 µM	–	no SIRT2 inhibition	CCOC(=O)c1ccc2[nH]c(-c3cccc(OC)c3)nc2c1 [Compound V5]	2.00	4.08	45.6 ± 2.18 µM	1.44	IC50 ([1]; Homo sapiens, H103): 22.8 ± 3.84 µM; cytotoxic effect in preliminary screening, H314 (H314 (OSCC) cell line): highly significant effects
–	–	11.8 ± 11.4%	weakest inhibitory effect	CCOC(=O)c1ccc2[nH]c(-c3ccccc3OC)nc2c1 [Compound V6]	–	–	–	–	–
–	–	25.5 ± 12.9%	–	CCOC(=O)c1ccc2[nH]c(-c3ccc(OC)c(OC)c3)nc2c1 [Compound V8]	–	–	–	–	–
37.8 ± 1.81 µM	16.6 ± 3.52 µM	39.3 ± 7.3%	–	CCOC(=O)c1ccc2[nH]c(-c3ccc(O)c(O)c3)nc2c1 [Compound V9]	–	3.13	51.8 ± 5.65 µM	1.37	IC50 ([1]; Homo sapiens, H103): > 50 µM; cytotoxic effect in preliminary screening, H314 (H314 (OSCC) cell line): highly significant effects
–	–	–	–	C=C[C@H]1C[N@@]2CC[C@H]1C[C@H]2[C@H](O)c1ccnc2ccc(OC)cc12 [quinine sulfate]	–	–	–	–	quantum yield of reference [5]: 54.6%

Structure (SMILES)	IC50 (H314 (OSCC) cell line)	IC50 ([2]; Homo sapiens, HCT-116)	inhibition at 50 µM (SIRT2 human recombinant; [6])	Percentage SIRT2 inhibition (%) (SIRT2 human recombinant; [7])	H103 Selectivity Index (SI) [1]	HCT116 Selectivity Index (SI) [2]	IC50 (HEK293 cells; Homo sapiens, HEK293, 72 h)	H314 Selectivity Index (SI) (H314 (OSCC) cell line)	further results
N.N.[Cl][Pt][Cl] [Cisplatin, reference compound]	15.1 ± 1.05 µM	–	–	–	1.91	0.43	–	0.23	IC50 [1]: 1.85 ± 0.42 µM; sensitivity in H103 relative to H314 ([1]; from IC50 values of Table 2): 8 fold; IC50 [2]: 8.24 ± 0.86 µM; IC50 (HEK293 cells; 72 h): 3.54 ± 0.18 µM; IC50 (H103 cell line): 15 µM; IC50 (H314 cell line): 200 µM
CCOC(=O)c1ccc2[nH]c(-c3ccc(O)cc3O)nc2c1 [Compound V2]	–	–	> 95%	complete inhibition of enzymatic activity	–	–	–	–	inhibition at 1 µM (SIRT2 human recombinant; dose-response): 19.4 ± 2.4%; inhibition at 3 µM (SIRT2 human recombinant; dose-response): 29.5 ± 6.6%; inhibition at 10 µM (SIRT2 human recombinant; dose-response): 44.5 ± 0.2%; inhibition at 25 µM (SIRT2 human recombinant; dose-response): 59.8 ± 0.1%; inhibition at 50 µM (SIRT2 human recombinant; [8]): 77 ± 0.1%; IC50 (SIRT2 human recombinant): 10.8 µM
CCOC(=O)c1ccc2[nH]c(-c3ccccc3O)nc2c1 [Compound V7]	16.7 ± 1.13 µM	13.3 ± 2.52 µM	> 95%	complete inhibition of enzymatic activity	3.81	3.34	44.4 ± 3.03 µM	2.66	IC50 ([1]; Homo sapiens, H103): 11.6 ± 1.04 µM; cytotoxic effect in preliminary screening, H314 (H314 (OSCC) cell line): highly significant effects; inhibition at 1 µM (SIRT2 human recombinant; dose-response): 0.2 ± 5.8%; inhibition at 3 µM (SIRT2 human recombinant; dose-response): 32.8 ± 2.8%; inhibition at 10 µM (SIRT2 human recombinant; dose-response): 66.1 ± 7.1%; inhibition at 25 µM (SIRT2 human recombinant; dose-response): 81.3 ± 3.2%; inhibition at 50 µM (SIRT2 human recombinant; [8]): 100 ± 3%; IC50 (SIRT2 human recombinant): 6.4 µM; molar extinction coefficient (molar absorptivity ε) ([4]; in DMSO, absorbance at 326 nm): 34,477 M^−1 cm^−1 and 34 477 M^−1 cm^−1; quantum yield Φ ([4]; in DMSO, λex 326 nm, λem 492 nm, versus quinine sulfate): 26%; Stokes shift Δλ ([4]; λex 326 nm, λem 492 nm): 166 nm
